# Data: US20230104936A1, “TRPML MODULATORS” (Casma Therapeutics, Inc., priority 2019, published 2023)
# System: TFEB
# Test: TFEB nuclear translocation assay, HeLa wt cells
# Format: cell-based
# Details: 2 hrs compound treatment, Table 1 does not say HeLa wt or TRPML1 KO
# Procedure, shortened: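 HeLa wt or TRPML1 KO cells treated 2 hrs with compounds at 37° C, fixed in 4% PFA, immunostained with anti-TFEB plus Alexa 488 secondary and Hoechst. Imaged at ×20, four fields/well; read-out is nuclear/perinuclear-ring TFEB intensity ratio, reported as AC50.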
compound,measurement,setting,value
"CC(c1cc(Cl)cnc1N1CCC(CN2CCC(F)(F)CC2)CC1)S(=O)(=O)c1ccc2c(c1)CCC2 (single isomer, unassigned) [Compound A-994, 5-chloro-2-(4-((4,4-difluoropiperidin-1-yl)methyl)piperidin-1-yl)-3-(1-((2,3-dihydro-1H-inden-5-yl)sulfonyl)ethyl)pyridine]",AC50,,≤ 2 µM
"Cc1cnc(N2CCC(CN3CCC(F)(F)CC3)CC2)c(C(C)S(=O)(=O)c2ccc(S(=O)(=O)N(C)C)cc2)c1 (single isomer, unassigned) [Compound A-995, 4-((1-(2-(4-((4,4-difluoropiperidin-1-yl)methyl)piperidin-1-yl)-5-methylpyridin-3-yl)ethyl)sulfonyl)-N,N-dimethylbenzenesulfonamide]",AC50,,≥ 10 µM
"CC(c1cccc(F)c1N1CCC(CN2CCC(F)(F)CC2)CC1)S(=O)(=O)c1ccc(C(F)F)cc1 (single isomer, unassigned) [Compound A-997, 1-((1-(2-(1-((4-(difluoromethyl)phenyl)sulfonyl)ethyl)-6-fluorophenyl)piperidin-4-yl)methyl)-4,4-difluoropiperidine]",AC50,"Homo sapiens, HeLa, 2 h",≤ 2 µM
"CC(c1cccc(F)c1N1CCC(CN2CCC(F)(F)CC2)CC1)S(=O)(=O)c1ccc(C(F)F)cc1 (single isomer, unassigned) [Compound A-998, 1-((1-(2-(1-((4-(difluoromethyl)phenyl)sulfonyl)ethyl)-6-fluorophenyl)piperidin-4-yl)methyl)-4,4-difluoropiperidine]",AC50,,2.01 to 8 µM
"Cc1cnc(N2CCC(CN3CCC(F)(F)CC3)CC2)c(C(C)S(=O)(=O)c2ccc3c(c2)CCC3)c1 (single isomer, unassigned) [Compound A-999, 2-(4-((4,4-difluoropiperidin-1-yl)methyl)piperidin-1-yl)-3-(1-((2,3-dihydro-1H-inden-5-yl)sulfonyl)ethyl)-5-methylpyridine]",AC50,,≤ 2 µM
"Cc1cnc(N2CCC(CN3CCC(F)(F)CC3)CC2)c(C(C)S(=O)(=O)c2ccc3c(c2)CCC3)c1 (single isomer, unassigned) [Compound A-1000, 2-(4-((4,4-difluoropiperidin-1-yl)methyl)piperidin-1-yl)-3-(1-((2,3-dihydro-1H-inden-5-yl)sulfonyl)ethyl)-5-methylpyridine]",AC50,,≥ 10 µM
"C[C@@H]1CN(CC2CCN(c3c(F)cccc3[C@H](C)S(=O)(=O)c3ccc(S(=N)(=O)N(C)C)cc3)CC2)C[C@H](C)O1 (single isomer, unassigned) [Compound A-1001]",AC50,,≤ 2 µM
"COCC1(C)CCN(c2ccccc2C(C)S(=O)(=O)c2ccc(S(=O)(=O)N(C)C)cc2)CC1 (single isomer, unassigned; enantiomer 1) [Compound A-698, 4-((1-(2-(4-(methoxymethyl)-4-methylpiperidin-1-yl)phenyl)ethyl)sulfonyl)-N,N-dimethylbenzenesulfonamide, enantiomer 1]",AC50,"Homo sapiens, HeLa, 2 h",≤ 2 µM
"COCC1(C)CCN(c2ccccc2C(C)S(=O)(=O)c2ccc(S(=O)(=O)N(C)C)cc2)CC1 (single isomer, unassigned; enantiomer 2) [Compound A-699, 4-((1-(2-(4-(methoxymethyl)-4-methylpiperidin-1-yl)phenyl)ethyl)sulfonyl)-N,N-dimethylbenzenesulfonamide, enantiomer 2]",AC50,,2.01 to 8 µM
"C[C@@H]1COC[C@@H](C)N1CC1CN(c2c(F)cccc2NS(=O)(=O)c2ccc(S(=O)(=O)N(C)C)cc2)C1 (stereo in doubt) [Compound A-873, N1-(2-(3-((3,5-dimethylmorpholino)methyl)azetidin-1-yl)-3-fluorophenyl)-N4,N4-dimethylbenzene-1,4-disulfonamide]",AC50,"Homo sapiens, HeLa, 2 h",≥ 10 µM
"C[C@@H]1COC[C@@H](C)N1CC1CN(c2c(F)cccc2NS(=O)(=O)c2ccc(S(=O)(=O)N(C)C)cc2)C1 (stereo in doubt) [Compound A-915, rel-N4-[2-(3-{[(3R,5R)-3,5-dimethylmorpholin-4-yl]methyl}azetidin-1-yl)-3-fluorophenyl]-N1,N1-dimethylbenzene-1,4-disulfonamide]",AC50,"Homo sapiens, HeLa, 2 h",≥ 10 µM
"C[C@H]1COC[C@H](C)N1CC1CN(c2c(F)cccc2NS(=O)(=O)c2ccc(S(=O)(=O)N(C)C)cc2)C1 (stereo in doubt) [Compound A-916, rel-N4-[2-(3-{[(3R,5R)-3,5-dimethylmorpholin-4-yl]methyl}azetidin-1-yl)-3-fluorophenyl]-N1,N1-dimethylbenzene-1,4-disulfonamide]",AC50,"Homo sapiens, HeLa, 2 h",≥ 10 µM
"O=S(=O)(Nc1ccccc1N1CCN(c2ccc(Cl)cc2F)CC1)c1cccnc1 [Compound A-1, N-{2-[4-(4-chloro-2-fluorophenyl)piperazin-1-yl]phenyl}pyridine-3-sulfonamide]",AC50,"Homo sapiens, HeLa, 2 h",≤ 2 µM
"Cn1cnc(S(=O)(=O)Nc2ccccc2N2CCN(c3ccc(Cl)cc3F)CC2)c1 [Compound A-2, N-{2-[4-(4-chloro-2-fluorophenyl)piperazin-1-yl]phenyl}-1-methyl-1H-imidazole-4-sulfonamide]",AC50,"Homo sapiens, HeLa, 2 h",≤ 2 µM
"CN(C)S(=O)(=O)c1ccc(S(=O)(=O)Nc2ccccc2C#Cc2ccc(Cl)cc2F)cc1 [Compound A-3, N1-(2-((4-chloro-2-fluorophenyl)ethynyl)phenyl)-N4,N4-dimethylbenzene-1,4-disulfonamide]",AC50,"Homo sapiens, HeLa, 2 h",≤ 2 µM
"COc1cccc(S(=O)(=O)Nc2ccccc2N2CCN(c3ccc(Cl)cc3F)CC2)c1 [Compound A-4, N-{2-[4-(4-chloro-2-fluorophenyl)piperazin-1-yl]phenyl}-3-methoxybenzene-1-sulfonamide]",AC50,"Homo sapiens, HeLa, 2 h",≤ 2 µM
"N#Cc1cccc(S(=O)(=O)Nc2ccccc2N2CCN(c3ccc(Cl)cc3F)CC2)c1 [Compound A-5, N-{2-[4-(4-chloro-2-fluorophenyl)piperazin-1-yl]phenyl}-3-cyanobenzene-1-sulfonamide]",AC50,"Homo sapiens, HeLa, 2 h",2.01 to 8 µM
"Cn1cc(S(=O)(=O)Nc2ccccc2N2CCN(c3ccc(Cl)cc3F)CC2)cn1 [Compound A-6, N-{2-[4-(4-chloro-2-fluorophenyl)piperazin-1-yl]phenyl}-1-methyl-1H-pyrazole-4-sulfonamide]",AC50,"Homo sapiens, HeLa, 2 h",≥ 10 µM
"Cc1nc(C)c(S(=O)(=O)Nc2ccccc2N2CCN(c3ccc(Cl)cc3F)CC2)s1 [Compound A-7, N-{2-[4-(4-chloro-2-fluorophenyl)piperazin-1-yl]phenyl}-2,4-dimethyl-1,3-thiazole-5-sulfonamide]",AC50,"Homo sapiens, HeLa, 2 h",≤ 2 µM
"O=S(=O)(Nc1ccccc1N1CCN(c2ccc(Cl)cc2F)CC1)C1CCCCC1 [Compound A-8, N-{2-[4-(4-chloro-2-fluorophenyl)piperazin-1-yl]phenyl}cyclohexanesulfonamide]",AC50,"Homo sapiens, HeLa, 2 h",≥ 10 µM
"CN(C)S(=O)(=O)c1ccc(NC(=O)c2ccccc2N2CCN(c3ccc(Cl)cc3F)CC2)cc1 [Compound A-9, 2-(4-(4-chloro-2-fluorophenyl)piperazin-1-yl)-N-(4-(N,N-dimethylsulfamoyl)phenyl)benzamide]",AC50,"Homo sapiens, HeLa, 2 h",≤ 2 µM
"CN(C)S(=O)(=O)c1ccc(S(=O)(=O)Nc2ccccc2N2CCC(c3ccccc3F)CC2)cc1 [Compound A-10, N4-{2-[4-(2-fluorophenyl)piperidin-1-yl]phenyl}-N1,N1-dimethylbenzene-1,4-disulfonamide]",AC50,"Homo sapiens, HeLa, 2 h",≤ 2 µM
"CN(C)S(=O)(=O)c1ccc(C(=O)Nc2ccccc2N2CCN(c3ccc(Cl)cc3F)CC2)cc1 [Compound A-11, N-{2-[4-(4-chloro-2-fluorophenyl)piperazin-1-yl]phenyl}-4-(dimethylsulfamoyl)benzamide]",AC50,"Homo sapiens, HeLa, 2 h",≤ 2 µM
